We go through two compounds from patent EP3095787A1, “[…] ACTIVE COMPOUNDS AS DAG-LIPASE INHIBITORS” (Universiteit Leiden, priority 2015, dated 2016).

As usually defined, the Ki is the dissociation constant of the complex between target and ligand, obtained from inhibition or displacement. The low end stands for a stronger hold on the target, the high end for a looser hold on the target.

Structures are written as SMILES.

For one test, the target named is FAAH. The note with it: reported value; cited from earlier work.
The next test addresses T1, DAGL-α (Mus musculus, UniProt Q6WQJ1).
T1 construct: endogenously expressed DAGL-α in mouse membrane proteome; from tissue; host or cells: mouse brain membrane proteome
T1 sequence (Q6WQJ1 1-1044): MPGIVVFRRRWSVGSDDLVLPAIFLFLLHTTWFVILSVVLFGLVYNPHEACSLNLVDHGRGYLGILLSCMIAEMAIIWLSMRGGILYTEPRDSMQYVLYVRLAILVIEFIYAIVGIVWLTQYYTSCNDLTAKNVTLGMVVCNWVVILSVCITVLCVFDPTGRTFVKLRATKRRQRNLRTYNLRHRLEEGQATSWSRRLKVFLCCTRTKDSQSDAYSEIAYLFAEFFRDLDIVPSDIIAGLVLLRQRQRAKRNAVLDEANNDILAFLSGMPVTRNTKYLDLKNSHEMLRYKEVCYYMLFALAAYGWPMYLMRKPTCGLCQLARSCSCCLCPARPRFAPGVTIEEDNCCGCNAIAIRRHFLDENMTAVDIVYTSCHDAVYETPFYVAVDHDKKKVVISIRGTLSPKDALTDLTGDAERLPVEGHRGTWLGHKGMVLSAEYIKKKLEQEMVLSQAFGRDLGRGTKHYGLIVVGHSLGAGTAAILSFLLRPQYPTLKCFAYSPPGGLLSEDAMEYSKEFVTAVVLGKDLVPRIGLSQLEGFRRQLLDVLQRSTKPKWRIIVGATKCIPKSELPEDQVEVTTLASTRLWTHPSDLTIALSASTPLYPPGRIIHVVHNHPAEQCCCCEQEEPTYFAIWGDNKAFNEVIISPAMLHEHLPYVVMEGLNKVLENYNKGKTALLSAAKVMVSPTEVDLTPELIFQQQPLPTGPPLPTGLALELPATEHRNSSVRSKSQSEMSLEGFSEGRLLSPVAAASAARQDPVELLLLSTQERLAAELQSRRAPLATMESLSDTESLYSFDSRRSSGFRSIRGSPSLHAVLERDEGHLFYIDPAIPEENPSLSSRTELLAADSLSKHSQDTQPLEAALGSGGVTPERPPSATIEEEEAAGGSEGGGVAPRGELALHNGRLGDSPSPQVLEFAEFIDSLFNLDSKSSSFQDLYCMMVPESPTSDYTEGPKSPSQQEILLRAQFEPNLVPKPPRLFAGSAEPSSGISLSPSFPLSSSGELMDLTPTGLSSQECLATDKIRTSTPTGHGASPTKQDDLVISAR
Kind of test: Competitive ABPP with MB064 on endogenous DAGL-α in mouse brain membrane proteome. In kind it is biochemical. The note with it: MB064 250 nM, n=3, read-out: pIC50 of DAGL-α labeling by MB064 (converted). The source says:
To test its activity on endogenously expressed DAGL-α in mouse membrane proteome, an ABPP assay with MB064, a specific β-lactone-containing probe, which was tailor-made for the detection of DAGL-α activity, was used. An alkyne group was introduced in the prototypical DAGL-inhibitor tetrahydrolipstatin (THL) and conjugated this covalent, irreversible inhibitor via copper-catalyzed click chemistry to a BODIPY-acid as a fluorencent reporter group to yield tailor-made probe MB064.

A further test has as its target T2, cannabinoid CB1 receptor (Homo sapiens, UniProt P21554).
T2 construct: expressed in transfected cells; host or cells: CHOK1hCB1_bgal (CHO-K1), membranes
Kind of test: [3H]CP55940 displacement assay on CHOK1hCB1_bgal membranes. In kind it is binding. How it is done:
CHOK1hCB1_bgal cells (CHOK1 cell line expressing human cannabinoid receptor 1) were cultured in Ham's F12 Nutrient Mixture supplemented with 10% fetal calf serum, 1 mM glutamine, 50 U/mL penicillin, 50 µg/ml streptomycin, […] hygromycin and 800 µg/mL geneticin in a humidified atmosphere at 37°C and 5% CO2. Cells were subcultured twice a week at a ratio of 1:20 on 10-cm ø plates by trypsinization. For membrane preparation the cells were subcultured 1:10 and transferred to large 15-cm diameter plates.
The cells on thirty 15-cm ø plates were detached from the bottom by scraping them into 5 mL phosphate-buffered saline (PBS), collected in 12 mL Falcon tubes and centrifuged for 5 minutes at 200 x g (3,000 rpm). The pellets were resuspended in ice-cold 50 mM Tris-HCl buffer and 5 mM MgCl2 (pH 7.4). […] Membrane protein concentrations were measured using the BCA method.
[^3H]CP55940 displacement assays were used for high throughput screening of cold ligands and the determination of their affinity (Ki) and IC50 values. […] Nonspecific binding was determined in the presence of 10 µM AM630 (6-lodopravadoline; a selective inverse agonist for the cannabinoid receptor CB2). […] After 2 hours, the filter-bound radioactivity was determined by scintillation spectrometry using a Tri-Carb 2900 TR liquid scintillation counter (Perkin Elmer, Boston, MA).

T2 sequence (P21554 whole entry): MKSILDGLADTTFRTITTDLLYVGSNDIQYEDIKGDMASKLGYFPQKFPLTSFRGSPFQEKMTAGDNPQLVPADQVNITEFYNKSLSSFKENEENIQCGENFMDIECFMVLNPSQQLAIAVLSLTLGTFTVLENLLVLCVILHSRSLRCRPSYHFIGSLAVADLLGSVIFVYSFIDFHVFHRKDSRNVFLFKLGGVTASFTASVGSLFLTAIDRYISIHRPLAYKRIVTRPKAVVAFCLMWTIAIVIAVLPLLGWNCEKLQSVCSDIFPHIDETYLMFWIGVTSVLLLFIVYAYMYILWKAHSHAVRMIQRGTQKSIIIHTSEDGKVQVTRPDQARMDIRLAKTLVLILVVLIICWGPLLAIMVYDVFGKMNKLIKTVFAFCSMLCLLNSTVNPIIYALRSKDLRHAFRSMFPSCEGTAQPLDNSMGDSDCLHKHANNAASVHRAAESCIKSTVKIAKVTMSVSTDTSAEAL

For `O=C(CCCCCc1ccccc1)c1nc2ncccc2o1` [Compound 1, 1-(Oxazolo[4,5-b]pyridin-2-yl)-6-phenylhexan-1-one, reference compound], the “FAAH Activity assay reported pKi” value on FAAH is 9.70.
As to `Cc1ccc(-c2cnc3nc(C(=O)CCCCCc4ccccc4)oc3c2)cc1` [Compound 25, 1-(6-(p-Tolyl)oxazolo[4,5-b]pyridin-2-yl)-6-phenylhexan-1-one], the IC50 on DAGL-α was 31.6 nM. The “displacement of 3H-CP55940 from the CB1 receptor” value on cannabinoid CB1 receptor (10 µM) is on record as “did not displace”. Besides, the Ki at cannabinoid CB1 receptor (CB1 receptor radioligand displacement) was more than 10000 nM.
